Test [1] relates to TXNIP mRNA. Briefly: TXNIP mRNA expression in THP1 cells under 25 mM glucose (RT-PCR). Format: cell-based, human. As to conditions: for TXNIP mRNA expression: concentration range. As to the method: FIGS. 2A-2B. FIG. 2A: C30 and C38 inhibited TXNIP mRNA expression in THP1 cells. THP1 cells were cultured under 25 mM glucose with the indicated concentrations of compounds for 72 hours. Cells were then collected for total RNA preparation. RT-PCR was performed, and data shown are the mean±SEM from triplicates. Statistical analysis was performed using one-way ANOVA, *p<0.0001. FIG. 2B: C30 and C38 inhibited TNF-α mRNA expression in THP1 cells. THP1 cells were cultured under 25 mM glucose with various concentrations of compounds as indicated for 72 hours and collected for total RNA preparation. RT-PCR was performed, and data shown are the mean±SEM from triplicates. Statistical analysis was performed using one-way ANOVA: *<0.02; **<0.0001.
FIG. 6. C38 analogues effects on TXNIP mRNA expression in THP1 cells. THP1 cells were cultured under 25 mM glucose with 2.5 uM of compounds for 72 h. Total RNA was collected. RT-PCR was performed in triplicate and data shown are the mean±SEM. Statistical analysis was performed using one-way ANOVA: *p<0.0001.
FIG. 7. C38 and analogue E2 effects on TXNIP mRNA levels in THP cells. THP1 cells were cultured under 25 mM glucose with several concentration of C38 and E2 as indicated for 72 hours. Total RNA was prepared. RT-PCR was performed in triplicate and data shown are the mean±SEM. Statistical analysis was performed for each column vs. without compound control using one-way ANOVA: *p<0.0001.
C30 and C38 inhibited TXNIP mRNA expression in THP1 cells.
Discovery of lead compound analogues. A search of chemical libraries was performed in the interest of identifying possible lead compound analogues. Analogues to C38 were identified. To determine the properties of the analogues, we treated THP1 cells with the E batch compounds for three days, prepared RNA and measured TXNIP mRNA levels.
(§1) RNA extraction and quantitative RT-PCR. RNA was extracted using the Direct-zol™ RNA MiniPrep Plus (Zymo Research). Reverse transcription of RNA samples into cDNA was performed using the GeneAmp RNA PCR Kit (Applied Biosystems), dNTP (from Roche Applied Science), Rnase inhibitor, MULV Reverse Transcriptase and Random hexamers reagent (all from Invitrogen). Diluted cDNA was quantified using real-time PCR performed with Power SYBR Green qPCR MasterMix (Applied Biosystem) and 7500 real-time PCR system (Applied Biosystems). The HPRT1 gene was used as an internal control.

For test [2], the system named is TXNIP mRNA. As to the kind of experiment: TXNIP mRNA levels in murine MIN6 pancreatic beta cells (RT-PCR). Format: cell-based, mouse. As to conditions: 25 mM glucose, 72 hours. As to the method:
FIGS. 4A-4B. […] MIN6 cells were cultured under 25 mM glucose with C30 and C38 at the indicated concentrations for 72 hours. Total RNA was prepared. RT-PCR was performed and data shown are the mean±SEM from triplicates. Statistical analysis was performed for each column vs. HG DMSO using one-way ANOVA: *p<0.0001. […] MIN6 cells were cultured under 25 mM glucose and treated with C30 and C38 at the indicated concentrations for 72 hours. Total RNA was prepared. RT-PCR was performed and data shown are the mean±SEM from triplicates. Statistical analysis was performed for each column vs. HG DMSO using one-way ANOVA: *p<0.0001.
To ascertain the relevance to pancreatic beta cells, we tested the effects of the lead compounds on key target gene mRNA levels in murine MIN6 pancreatic beta cells.
as §1

For test [3], the system named is TXNIP mRNA. As to the kind of experiment: TXNIP expression in murine kidneys after oral dosing (RT-PCR). Format: in vivo, C57BL/6 mice. As to conditions: 90 mg/kg oral gavage daily for five days, 96 hr after last dose. The procedure:
FIG. 17. Compounds C30 and C38 reduce TXNIP expression in murine kidneys. Twelve male C57BL/6 mice were divided into three groups (vehicle, C30 and C38, 4/group). They received 90 mg/kg dose of compounds daily for five consecutive days. Compounds were given through oral gavage and mice were humanely euthanized 96 hr after the last drug administration. Kidneys were collected for total RNA preparation. RT-PCR was performed in triplicate and data shown are the mean±SEM. Statistical analysis was performed using one-way ANOVA: *p<0.05.
The effects of compounds C30 and C38 at single high dose of 90 mg/kg. Twelve male mice were divided into three groups: 1) Control group (4 mice), 2) compound C30 (4 mice) and 3) compound C38 (4 mice). By oral gavage, animals were given 90 mg/kg of agent daily for 5 consecutive days (vehicle: 30% Solutol in saline). Mice were weighed every day during the treatment period. They were humanely euthanized 96 hours after the last dose. Tissues including the pancreas, liver and kidneys were collected (snap frozen in liquid nitrogen) for RNA extraction. […] Those given compound C30 lost ˜5% of body weight (FIG. 15).
Expression of TXNIP in vivo in treated mice.

Molecules are shown by their SMILES.

Turning to `COc1cc(N2CC[C@@H](c3ccc4ccccc4c3)[C@H](O)C2)nc(N)n1` [Compound C30], in test [1] (72 hours), the “concentration at which inhibition of TXNIP mRNA is still effective” value turned out to be 0.15 µM and the “TXNIP mRNA expression” value is reported as “inhibit TXNIP expression in a dose-dependent manner”. The “TXNIP mRNA levels” value in test [2] is “decreased TXNIP mRNA levels”. In addition, the “RNA expression level of TXNIP in kidneys” value in test [3] is listed as “reduced”.

Take `c1ccc(CCNc2ncnc3c2oc2ccccc23)cc1` [Compound C38]: the “TXNIP mRNA expression (C38 analogues screen)” value in test [1] (2.5 uM compound, 72 h) was “strongly inhibited TXNIP mRNA expression”. The “TXNIP mRNA expression” value in test [1] (72 hours) is “inhibit TXNIP expression in a dose-dependent manner”. Besides, in test [2], the “TXNIP mRNA levels” value is “decreased TXNIP mRNA levels”. For the same compound, the “RNA expression level of TXNIP in kidneys” value in test [3] is recorded as “reduced”.
